Experimental data published in ChEMBL document CHEMBL3885881, “DrugMatrix”.

Organism: Rattus norvegicus
Test: DrugMatrix - Regimen: Daily Repeat
Assay type: toxicity, organism-based, Sprague-Dawley
Design: regimen Daily Repeat, gender Male, age 6-8 weeks
Settings: in vivo, po, route oral GAVAGE, vehicle 100 % SALINE; for ABSOLUTE BASOPHIL / ABSOLUTE EOSINOPHIL / ABSOLUTE LYMPHOCYTE / ABSOLUTE MONOCYTE / ABSOLUTE SEGMENTED NEUTROPHIL / BASOPHIL / EOSINOPHIL / ERYTHROCYTE COUNT / HEMATOCRIT / HEMOGLOBIN / LEUKOCYTE COUNT / LYMPHOCYTE / MEAN CORPUSCULAR HEMOGLOBIN / MEAN CORPUSCULAR HEMOGLOBIN CONCENTRATION / MEAN CORPUSCULAR VOLUME / MONOCYTE / NEUTROPHIL / NUCLEATED RED BLOOD CELLS / PLATELET COUNT: tissue Blood; for ALANINE AMINOTRANSFERASE / ALBUMIN / ALKALINE PHOSPHATASE / ASPARTATE AMINOTRANSFERASE / BLOOD UREA NITROGEN / CARBON DIOXIDE / CHLORIDE / CHOLESTEROL / CREATINE PHOSPHOKINASE / CREATININE / GLUCOSE / LACTATE DEHYDROGENASE / LIPASE / PHOSPHORUS / POTASSIUM / SODIUM / TOTAL BILIRUBIN / TOTAL PROTEIN / URIC ACID: tissue Plasma
[1] = 0 mg/kg, 72 h, dose level Control, time 3 day
[2] = 0 mg/kg, 120 h, dose level Control, time 5 day
[3] = 29 mg/kg, 72 h, dose level Low, time 3 day

Cc1ccnc2c1NC(=O)c1cccnc1N2C1CC1 [NEVIRAPINE]
ABSOLUTE BASOPHIL [1]: 0 CELLS/uL
ABSOLUTE EOSINOPHIL [1]: 37 CELLS/uL
ABSOLUTE LYMPHOCYTE [1]: 12359.33 CELLS/uL
ABSOLUTE MONOCYTE [1]: 122.67 CELLS/uL
ABSOLUTE SEGMENTED NEUTROPHIL [1]: 847.67 CELLS/uL
BASOPHIL [1]: 0%
EOSINOPHIL [1]: 0.33%
ERYTHROCYTE COUNT [1]: 5.75 x10E6/uL
HEMATOCRIT [1]: 36.08%
HEMOGLOBIN [1]: 14.07 G/DL
LEUKOCYTE COUNT [1]: 13.37 x10E3/uL
LYMPHOCYTE [1]: 92.5%
MEAN CORPUSCULAR HEMOGLOBIN [1]: 24.47 pg
MEAN CORPUSCULAR HEMOGLOBIN CONCENTRATION [1]: 38.98 G/DL
MEAN CORPUSCULAR VOLUME [1]: 62.78 fL
MONOCYTE [1]: 1%
NEUTROPHIL [1]: 6.17%
NUCLEATED RED BLOOD CELLS [1]: 0.17 /100WBC
PLATELET COUNT [1]: 1202.17 x10E3/uL
ALANINE AMINOTRANSFERASE [1]: 50.67 u/L
ALBUMIN [1]: 4.13 G/DL
ALKALINE PHOSPHATASE [1]: 356.33 u/L
ASPARTATE AMINOTRANSFERASE [1]: 78.17 u/L
BLOOD UREA NITROGEN [1]: 14.17 mg/dL
CARBON DIOXIDE [1]: 31.33 mmol/L
CHLORIDE [1]: 98.5 MEQ/L
CHOLESTEROL [1]: 76.5 mg/dL
CREATINE PHOSPHOKINASE [1]: 248.33 u/L
CREATININE [1]: 0.2 mg/dL
GLUCOSE [1]: 144 mg/dL
LACTATE DEHYDROGENASE [1]: 107 u/L
LIPASE [1]: 9.83 u/L
PHOSPHORUS [1]: 12.8 mg/dL
POTASSIUM [1]: 6.75 MEQ/L
SODIUM [1]: 142 MEQ/L
TOTAL BILIRUBIN [1]: 0.18 mg/dL
TOTAL PROTEIN [1]: 5.98 G/DL
URIC ACID [1]: 1.42 mg/dL
ABSOLUTE BASOPHIL [2]: 0 CELLS/uL
ABSOLUTE EOSINOPHIL [2]: 0 CELLS/uL
ABSOLUTE LYMPHOCYTE [2]: 8681.17 CELLS/uL
ABSOLUTE MONOCYTE [2]: 79.83 CELLS/uL
ABSOLUTE SEGMENTED NEUTROPHIL [2]: 689 CELLS/uL
BASOPHIL [2]: 0%
EOSINOPHIL [2]: 0%
ERYTHROCYTE COUNT [2]: 5.49 x10E6/uL
HEMATOCRIT [2]: 33.55%
HEMOGLOBIN [2]: 13.1 G/DL
LEUKOCYTE COUNT [2]: 9.45 x10E3/uL
LYMPHOCYTE [2]: 92.33%
MEAN CORPUSCULAR HEMOGLOBIN [2]: 23.92 pg
MEAN CORPUSCULAR HEMOGLOBIN CONCENTRATION [2]: 39.07 G/DL
MEAN CORPUSCULAR VOLUME [2]: 61.22 fL
MONOCYTE [2]: 0.67%
NEUTROPHIL [2]: 7%
NUCLEATED RED BLOOD CELLS [2]: 0.17 /100WBC
PLATELET COUNT [2]: 1001.17 x10E3/uL
ALANINE AMINOTRANSFERASE [2]: 49.33 u/L
ALBUMIN [2]: 4.07 G/DL
ALKALINE PHOSPHATASE [2]: 300.33 u/L
ASPARTATE AMINOTRANSFERASE [2]: 83.5 u/L
BLOOD UREA NITROGEN [2]: 16 mg/dL
CARBON DIOXIDE [2]: 29.67 mmol/L
CHLORIDE [2]: 100.5 MEQ/L
CHOLESTEROL [2]: 74.33 mg/dL
CREATINE PHOSPHOKINASE [2]: 489.67 u/L
CREATININE [2]: 0.35 mg/dL
GLUCOSE [2]: 151 mg/dL
LACTATE DEHYDROGENASE [2]: 133.67 u/L
LIPASE [2]: 11.17 u/L
PHOSPHORUS [2]: 10.88 mg/dL
POTASSIUM [2]: 5.5 MEQ/L
SODIUM [2]: 145.7 MEQ/L
TOTAL BILIRUBIN [2]: 0.2 mg/dL
TOTAL PROTEIN [2]: 6.05 G/DL
URIC ACID [2]: 0.68 mg/dL
ABSOLUTE BASOPHIL [3]: 0 CELLS/uL
ABSOLUTE EOSINOPHIL [3]: 29.67 CELLS/uL
ABSOLUTE LYMPHOCYTE [3]: 8345.33 CELLS/uL
ABSOLUTE MONOCYTE [3]: 0 CELLS/uL
ABSOLUTE SEGMENTED NEUTROPHIL [3]: 725 CELLS/uL
BASOPHIL [3]: 0%
EOSINOPHIL [3]: 0.33%
ERYTHROCYTE COUNT [3]: 5.42 x10E6/uL
HEMATOCRIT [3]: 33.9%
HEMOGLOBIN [3]: 13.2 G/DL
LEUKOCYTE COUNT [3]: 9.1 x10E3/uL
LYMPHOCYTE [3]: 91.67%
MEAN CORPUSCULAR HEMOGLOBIN [3]: 24.43 pg
MEAN CORPUSCULAR HEMOGLOBIN CONCENTRATION [3]: 38.93 G/DL
MEAN CORPUSCULAR VOLUME [3]: 62.7 fL
MONOCYTE [3]: 0%
NEUTROPHIL [3]: 8%
NUCLEATED RED BLOOD CELLS [3]: 0 /100WBC
PLATELET COUNT [3]: 673.67 x10E3/uL
ALANINE AMINOTRANSFERASE [3]: 74.33 u/L
ALBUMIN [3]: 4.3 G/DL
ALKALINE PHOSPHATASE [3]: 343.67 u/L
ASPARTATE AMINOTRANSFERASE [3]: 123.67 u/L
BLOOD UREA NITROGEN [3]: 10.33 mg/dL
CARBON DIOXIDE [3]: 28.33 mmol/L
CHOLESTEROL [3]: 68.67 mg/dL
CREATINE PHOSPHOKINASE [3]: 179.33 u/L
CREATININE [3]: 0.43 mg/dL
GLUCOSE [3]: 142.67 mg/dL
LACTATE DEHYDROGENASE [3]: 65.33 u/L
LIPASE [3]: 15.67 u/L
PHOSPHORUS [3]: 10.83 mg/dL
TOTAL BILIRUBIN [3]: 0.13 mg/dL
TOTAL PROTEIN [3]: 5.03 G/DL
URIC ACID [3]: 0.37 mg/dL
ABSOLUTE BASOPHIL (29 mg/kg, 120 h, dose level Low, time 5 day): 0 CELLS/uL
